Columns and labels:
Trametinib = compound: CC(=O)Nc1cccc(-n2c(=O)n(C3CC3)c(=O)c3c(Nc4ccc(I)cc4F)n(C)c(=O)c(C)c32)c1 [Trametinib]; test: relative viability (nuclei count vs DMSO), 5 days (fraction); higher = more cells survive
Summary of the method: (§1)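 Vehicle-anchored 1536-well plates of lung cancer cell lines, held overnight at 37 °C, were pinned with five library-drug doses (not always all listed) spaced by √10. No medium change followed over the next 5 days, after which the cells were fixed, permeabilised and Hoechst-stained together and imaged at 4×. Nuclei were counted with MetaXpress, and viability is treated-well nuclei over vehicle-well nuclei, taken as a median across plates. Plates passed with control CV below 25% and at least one doubling.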

[1] = compound: CN1C=C(C2=CC=CC=C21)/C=C\3/C4=C(C=CC=N4)NC3=O; test: as above
Summary of the method: as §1

| Cell Line | relative viability (Trametinib; 0.0025 µM) | relative viability (Trametinib; 0.007906 µM) | relative viability (Trametinib; 0.02 µM, anchor plate) | relative viability (Trametinib; 0.025 µM) | relative viability (Trametinib; 0.07906 µM) | relative viability (Trametinib; 0.25 µM) | relative viability ([1]; 0.02 µM) | relative viability ([1]; 0.06325 µM) | relative viability ([1]; 0.2 µM) | relative viability ([1]; 0.6325 µM) | relative viability ([1]; 2 µM) |
| --- | --- | --- | --- | --- | --- | --- | --- | --- | --- | --- | --- |
| HOP-62 | 1 | 0.943 | 0.4 | 0.778 | 0.444 | 0.209 | 0.992 | 1.03 | 0.805 | 1.02 | 0.938 |
| NCI-H1793 | 0.59 | 0.611 | 0.429 | 0.298 | 0.338 | 0.254 | 1.02 | 1.1 | 0.737 | 0.79 | 0.918 |
| NCI-H1355 | 0.921 | 0.796 | 0.419 | 0.542 | 0.653 | 0.583 | 0.933 | 0.888 | 0.899 | 0.692 | 0.824 |
| COR-L23 | 0.979 | 0.995 | 0.593 | 0.871 | 0.849 | 0.476 | 0.992 | 0.994 | 1.09 | 1.12 | 1 |
| HCC-44 | 0.966 | 0.982 | 1.05 | 1.02 | 0.82 | 0.495 | 0.902 | 0.906 | 0.87 | 0.991 | 0.935 |
| A-427 | 1.04 | 0.96 | 0.77 | 0.66 | 0.68 | 0.35 | 1.06 | 0.955 |  | 1.04 | 1.03 |
| IA-LM | 0.764 | 0.464 |  | 0.166 | 0.178 | 0.107 | 0.978 | 0.934 | 0.945 | 0.811 | 0.878 |
| NCI-H520 | 0.86 | 1.06 | 0.735 | 0.924 | 0.949 | 0.623 | 0.967 | 0.895 | 1.03 | 0.952 | 0.965 |
| LXF-289 | 0.897 | 0.86 | 0.679 | 0.755 | 0.722 | 0.664 | 0.979 | 1 | 0.976 | 1 | 1.03 |
| NCI-H2087 | 0.867 | 0.463 | 0.217 | 0.302 | 0.179 | 0.139 | 1 | 0.87 | 1.05 | 0.986 | 1.06 |
| CAL-12T | 0.904 | 0.723 | 0.369 | 0.503 | 0.51 | 0.343 | 0.894 | 0.873 | 0.98 | 0.972 | 0.924 |
| NCI-H596 | 0.934 | 0.872 | 0.787 | 0.802 | 0.712 | 0.47 | 0.985 | 0.998 | 0.791 | 0.982 | 0.993 |
| PC-14 | 1.03 | 0.953 | 0.756 | 0.758 | 0.626 | 0.226 | 0.944 | 0.943 | 0.926 | 1.01 | 1.05 |
| NCI-H1915 | 1.05 | 0.737 | 0.3 | 0.54 | 0.423 | 0.353 | 0.964 | 0.934 | 0.97 | 1.09 | 1.05 |
| NCI-H647 | 0.837 | 0.754 | 0.516 | 0.588 | 0.554 | 0.293 | 0.946 | 0.863 | 0.656 | 0.784 | 0.827 |
| NCI-H322M | 0.81 | 0.717 | 0.519 | 0.603 | 0.556 | 0.432 | 0.854 | 0.93 | 0.787 | 0.973 | 0.956 |

| Cell Line | relative viability (Trametinib; 0.0025 µM) | relative viability (Trametinib; 0.007906 µM) | relative viability (Trametinib; 0.02 µM, anchor plate) | relative viability (Trametinib; 0.025 µM) | relative viability (Trametinib; 0.07906 µM) | relative viability (Trametinib; 0.25 µM) | relative viability ([1]; 0.02 µM) | relative viability ([1]; 0.06325 µM) | relative viability ([1]; 0.2 µM) | relative viability ([1]; 0.6325 µM) | relative viability ([1]; 2 µM) |
| --- | --- | --- | --- | --- | --- | --- | --- | --- | --- | --- | --- |
| A549 | 0.864 | 0.658 |  | 0.375 | 0.278 | 0.14 | 0.935 | 0.992 | 0.767 | 0.923 | 0.989 |
| NCI-H2170 | 0.96 | 0.955 | 0.94 |  | 0.929 | 0.923 | 0.854 | 0.983 | 0.833 | 0.839 | 1.07 |
| BEN | 0.953 | 0.96 | 1.07 | 0.566 | 0.658 | 0.814 | 0.863 | 0.872 | 0.701 | 0.755 | 1.05 |
| NCI-H2009 | 0.864 | 0.647 | 0.297 | 0.384 | 0.355 | 0.331 | 0.975 | 0.994 | 1.02 | 1.05 | 1.05 |
| LC-2-ad | 0.948 | 0.871 | 0.9 | 0.875 | 0.587 | 0.596 | 0.988 | 0.995 | 0.786 | 1 | 0.959 |
| NCI-H1437 | 0.959 | 0.742 | 0.535 | 0.478 | 0.388 | 0.361 | 1.06 | 0.998 | 0.882 | 1.05 | 1.04 |
| NCI-H3122 | 0.909 | 0.701 | 0.231 | 0.465 | 0.361 | 0.281 | 0.878 | 0.938 | 0.897 | 1.05 | 0.994 |
| NCI-H1563 | 0.983 | 0.782 |  | 0.952 | 0.938 | 0.723 | 1.08 | 1 | 0.99 | 1.05 | 0.992 |
| NCI-H727 | 0.678 | 0.381 | 0.389 | 0.381 | 0.295 | 0.288 | 0.924 | 0.855 | 0.818 | 0.921 | 0.936 |
| Calu-6 | 0.915 | 0.727 |  | 0.472 | 0.24 | 0.18 | 1.02 | 0.968 | 1.01 | 0.99 | 1.05 |
| NCI-H1734 | 0.959 | 0.92 | 0.717 |  | 0.911 | 0.41 | 0.971 | 0.939 |  | 1.05 | 1.06 |
| HCC-15 | 0.795 | 0.541 | 0.389 | 0.544 | 0.325 | 0.28 | 0.947 | 0.952 | 1.03 | 1.01 | 1.01 |
| NCI-H2405 | 0.944 | 0.946 | 0.665 | 0.553 | 0.535 | 0.556 | 0.987 | 0.959 | 0.715 | 0.966 | 0.961 |
| NCI-H1993 | 0.698 | 0.732 | 0.54 | 0.548 | 0.693 | 0.628 | 0.927 | 0.84 | 0.825 | 0.671 | 0.814 |
| NCI-H1650 | 0.902 | 0.898 | 0.583 | 0.827 | 0.599 | 0.264 | 1.03 | 0.923 | 0.685 | 0.794 | 0.914 |

From the supplement of paper PMC10307832
